Measurements from US20240239806A1, “COMPOUNDS, COMPOSITIONS AND METHODS OF TREATING DISORDERS” (Chengdu Anticancer Bioscience, Ltd., priority 2021, published 2024).
Where two headings read alike, the source gives them in different places.

Tested on: RPEMYC^H2B-GFP cells
Test: Phenotypic screening assay (mitotic arrest, polyploidy)
Format: cell-based
Conditions: 1 nM to 30 μM; for IC50: read-out: Proliferative arrest (>50%)
Method: We have previously developed a mechanism-informed phenotypic screening assay to identify novel antimitotic agents. Equipped with a prior understanding of the versatile functions of the chromosomal passenger protein (CPP) complex in orchestrating karyokinesis and cytokinesis, the screening assay is to score for phenotypes typically seen when the CPP complex is disabled. Specifically, the parameters for a positive hit are a temporary elevation of mitotic index (MI) at 24 hours of drug treatment and an accumulation of polyploid cells at 48 hours of drug treatment, indicative of mitotic arrest and cytokinetic failure respectively. These parameters exclude compounds that elicit only a prolonged arrest of cells in mitosis, a phenotype typically provoked by spindle toxins. The screening procedure is briefly summarized here. RPEMYC^H2B-GFP cells engineered to express a Histone 2B-EGFP fusion protein were passaged as batches of 96-well plates, 18-24 hours before exposure to the chemical compounds of the present disclosure at concentrations from 1 nM to 30 μM. At 24, 48 or 72 hours after initiation of treatment, cells were analyzed for either an arrest in mitosis or a change in DNA content by GE IN-Cell Analyzer 2000. As set forth in Table 2 below, a value of greater than or equal to 1 nM and less than or equal to 1.0 μM is marked “A”; a value greater than 1.00 μM and less than or equal to 10.0 μM is marked “B”; a value greater than 10.0 μM and less than or equal to 30.0 μM is marked “C”; and a value greater than 30.0 μM is marked “D.”

[1] = read-out: Min. Effective conc. for Polyploidy (≥5%)

SMILES	minimal effective concentration [1] [µM]	minimal effective concentration (read-out: Mitotic Arrest (≥5%)) [µM]	IC50 [nM]
COc1cc(Oc2ccnc3cc(OC)c(C(N)=O)cc23)cc(-n2cc(C)cn2)c1 [Compound 84]	0.001 to 1	0.001 to 1	
COc1cc(Oc2ncnc3ccccc23)cc(-n2ccnc2)c1 [Compound 78]	1 to 10	1 to 10	1000 to 10000
COc1cc(Oc2ccnc3ccc(Br)cc23)cc(OC2CCOC2)c1 (stereo not shown) [Compound 92, 6-bromo-4-(3-methoxy-5-((tetrahydrofuran-3-yl)oxy)phenoxy)quinoline]	0.001 to 1	0.001 to 1	
COc1cc(OC)cc(Oc2ccnc3cc(OC)c(C(N)=O)cc23)c1 [Compound 69, 4-(3,5-Dimethoxyphenoxy)-7-methoxyquinolin-6-carboxamide]	0.001 to 1	0.001 to 1	1 to 1000
COc1cc2nccc(Oc3cc(Cl)cc(-n4cccn4)c3)c2cc1C(N)=O [Compound 5, 4-(3-chloro-5-(1H-pyrazol-1-yl)phenoxy)-7-methoxyquinoline-6-carboxamide]	1 to 10	1 to 10	
COc1cc(OC)cc(Oc2ccnc3ccc(Br)cc23)c1 [Compound 48, 6-Bromo-4-(3,5-dimethoxyphenoxy) quinoline]	0.001 to 1	0.001 to 1	1 to 1000
COc1cc(Oc2ccnc3ccccc23)cc(-n2cnc(C)c2)c1 [Compound 77, 4-(3-Methoxy-5-(4-methyl-1H-imidazol-1-yl)phenoxy)quinoline]	0.001 to 1	0.001 to 1	1 to 1000
CCOc1cc(Oc2ccnc3ccc(Br)cc23)cc(C(=O)NC)c1 [Compound 68]	0.001 to 1	0.001 to 1	1 to 1000
COc1cc(Oc2ccnc3ccc(C(N)=O)cc23)cc(O[C@@H]2CCOC2)c1 [Compound 3, (R)-4-(methoxy-5-((tetrahydrofuran-3-yl)oxy)phenoxy)quinoline-6-carboxamide]	0.001 to 1	0.001 to 1	
COc1cc(Oc2ccnc3ccccc23)cc(C(F)(F)F)c1 [Compound 11]	1 to 10	1 to 10	1000 to 10000
COc1cc(Oc2ncnc3ccccc23)cc(-n2cnc(C)c2)c1 [Compound 76, 4-(3-Methoxy-5-(4-methyl-1H-imidazol-1-yl)phenoxy)quinazoline]	1 to 10	1 to 10	1000 to 10000
COc1cc(NC(C)=O)cc(Oc2ccnc3ccc(Cl)cc23)c1 [Compound 50, N-(3-((6-chloroquinolin-4-yl)oxy)-5-methoxyphenyl) acetamide]	0.001 to 1	0.001 to 1	1 to 1000
COc1cc(Oc2ccnc3ccc(C(F)(F)F)cc23)cc(-n2cccn2)c1 [Compound 49, 4-(3-Methoxy-5-(1H-pyrazol-1-yl)phenoxy)-6-(trifluoromethyl) quinoline]	0.001 to 1	0.001 to 1	1 to 1000
COc1cc2nccc(Oc3cc(OC4CCOC4)cc(OC4CCOC4)c3)c2cc1C(N)=O (stereo not shown) [Compound 82, 4-(3,5-bis((tetrahydrofuran-3-yl)oxy)phenoxy)-7-methoxyquinoline-6-carbonamide]	1 to 10	1 to 10	
COC(=O)c1cc(OC)cc(Oc2ncnc3sccc23)c1 [Compound 41, methyl 3-methoxy-5-(thieno[2,3-d]pyrimidin-4-yloxy)benzoate]	0.001 to 1	0.001 to 1	1 to 1000
CNC(=O)c1ccc2nccc(Oc3cc(NC(C)=O)cc(OC)c3)c2c1 [Compound 53, 4-(3-Acetamido-5-methoxyphenoxy)-N-methylquinoline-6-carboxamide]	0.001 to 1	0.001 to 1	1 to 1000
CNC(=O)c1cc(OC)cc(Oc2ccnc3ccc(Br)cc23)c1 [Compound 72, 3-((6-Bromoquinolin-4-yl)oxy)-5-methoxy-N-methylbenzamide]	0.001 to 1	0.001 to 1	1 to 1000
